Each block holds one molecule with its values, some of them ahead of it.
Legend:
[1] = Drug loading and encapsulation efficiency of liposome suspensions (G-25 column separation, HPLC); type: physicochemical
Experimental: Liposome colloidal suspensions were prepared by ethanol injection technique. […] (DSPE-PEG2000) were dissolved in 2.86 ml of ethanol. The lipid solution in ethanol was injected into 17.4 ml of sodium acetate (200 mM or 400 mM) with vigorous stirring at 60° C. Liposomes were formed as soon as the lipid solution was in contact with sodium acetate. This was followed by extruding the liposome suspension through a 200 nm and a 100 nm polycarbonate membrane (six times, respectively). The liposome with about 100 nm was obtained and diafiltrated against a citrate buffer (pH 5.5) to form a higher inside/lower outside pH gradient between the external medium and the internal aqueous medium of the liposomes. The empty liposome suspension was then stored at 4° C. before drug loading process.
PGE1 (alprostadil) was added to the liposome suspension in the preceding paragraph at various drug/lipid molar ratios at room temperature (25° C.) for 20 min. The PGE1 loaded liposome suspension was stored at 4° C.
The liposome suspension was prepared according to the method described in Section 1.1, except that sodium acetate (200 mM or 400 mM) was replaced by sodium bicarbonate (e.g. 200 mM, 400 mM or other concentrations).
The amount of the drug encapsulated into the liposome was quantified using Waters Alliance® HPLC system with a Photodiode Array (PDA) Detector. […] Separation was performed in C18 Column (Phenomenex Prodigy 5U ODS-3 150×4.6 mm), and then post-reaction was carried out by mixed with IN of KOH at 65° C. The peak of the drug e.g. PGE1 was detected at 280 nm. The retention time was about 4.6 minutes.
Encapsulation efficiency (EE), i.e. the percentage of the drug encapsulated (or loaded) in the internal aqueous medium of the liposomes to the total amount of the drug present in the liposome suspension (i.e. drug in the external medium and drug loaded into the internal aqueous medium of the liposomes) was quantified as follows. Briefly, the liposome suspension was subjected to column chromatography. The free or non-associated drug (i.e. the drug in the external medium) and the liposomes containing the encapsulated drugs in the internal aqueous medium were separated from each other by eluting the liposome suspension through a G-25 column. The amount of the free drug was determined using Waters HPLC with PDA detection, and the amount of the encapsulated drug in the internal aqueous medium of the liposome, after destructing the liposomes with methanol (90% methanol and 10% liposome suspension), was also determined using the same method. The encapsulation efficiency was calculated using the following formula,
[formula] where L is the amount of the encapsulated drug in the internal aqueous medium of the liposomes, and F is the amount of the free drug in the external medium.
In addition, the internal drug concentration (mM) was calculated as follows. Internal drug concentration (mM)=[Drug [μg/mL]×EE %/molecular weight]/[trapped volume*]

[2] = cited from earlier work
pulmonary hypertension = test: Hypoxia-induced pulmonary hypertension in rats, mean pulmonary arterial pressure (PAP); type: in vivo, Sprague Dawley rats; settings: treprostinil at 6 μg/kg, single dose, microsprayer at the trachea bifurcation, hypoxic rats (FiO2=0.1)
Experimental: To induce pulmonary hypertension, a pressure catheter was inserted into the pulmonary artery of each rat. One end of the catheter was exposed at the nape of the neck and connected to a pressure transducer. 24 Hours after the catheter insertion, the rats were transferred into a hypoxic chamber where the oxygen (O2) level was reduced to 10% (FiO2=0.1) by increasing the level of nitrogen (N2). Once stable pulmonary hypertension was established, each rat was administered with a single dose of the three test articles: saline (N=6), free treprostinil at 6 μg/kg (N=6) or the pharmaceutical composition of Example 4 with treprostinil at 6 μg/kg (liposomal treprostinil, N=6). The test article was administered using a microsprayer at the trachea bifurcation of the rat. Following the test article administration, mean pulmonary arterial pressure (PAP) was measured at scheduled time points.

[3] = Incubation of liposome suspensions at simulated human physiological condition: pH of external medium and leakage; type: physicochemical; settings: 20 minutes; for pH at incubation temperature: external buffer 280 mOsm/Kg, citrate 10 mM; for liposome leakage: 280 mOsm/Kg
Experimental: Liposome suspensions using various concentrations of sodium bicarbonate for PGE1 loading were prepared according to section 1.1 of Example 1. The liposome suspensions were incubated at 25° C. and 37° C. for 20 minutes in an external buffer with osmolarity between 280-300 mOsm/Kg, to simulate human physiological condition.
Incubating formulations with a bicarbonate concentration of higher than about 1000 mM in human physiological condition (37° C. and 280-300 mOsm/Kg) generated more CO2, and lead to liposome leakage. The leaked liposomes released bicarbonate salt and the drug from the internal aqueous medium into the external medium and increased the pH of external medium to higher than 6.5.

[4] = liposomal formulation (4-1) HSPC:cholesterol:DSPE-mPEG2000 3:2:0.075, internal bicarbonate salt 400 mM, drug loading at 40° C.
[5] = liposomal formulation (4-1) HSPC:cholesterol:DSPE-mPEG2000 3:2:0.075, internal bicarbonate salt 200 mM, drug loading at 25° C.
[6] = liposomal formulation (4-1) HSPC:cholesterol:DSPE-mPEG2000 3:2:0.075, internal bicarbonate salt 400 mM, drug loading at 25° C.
[7] = liposomal formulation (4-2) HSPC:cholesterol:DSPG 3:2:0.075, internal bicarbonate salt 400 mM, drug loading at 40° C.
[8] = liposomal formulation (4-3) DPPC:Cholesterol:DSPE-mPEG2000 3:2:0.075, internal bicarbonate salt 400 mM, drug loading at 40° C.
[9] = liposomal formulation (4-4) DSPC:DPPC:Cholesterol:mPEG2000-DSPE 2.7:0.3:2:0.075, internal bicarbonate salt 250 mM, drug loading at 40° C.
[10] = liposomal formulation (4-5) HSPC:Cholesterol:mPEG2000-DSPE:stearylamine 3:2:0.075:0.025, internal bicarbonate salt 400 mM, drug loading at 40° C.
[11] = liposomal formulation (4-6) HSPC:DMPC:Cholesterol:mPEG2000-DSPE 2.7:0.3:2:0.075, internal bicarbonate salt 400 mM, drug loading at 40° C.
[12] = sodium bicarbonate internal salt 50 mM, 10 mM of phospholipid
[13] = sodium bicarbonate internal salt 150 mM, 10 mM of phospholipid
[14] = sodium bicarbonate internal salt 200 mM, 10 mM of phospholipid
[15] = sodium bicarbonate internal salt 250 mM, 10 mM of phospholipid
[16] = sodium bicarbonate internal salt 300 mM, 10 mM of phospholipid
[17] = sodium bicarbonate internal salt 400 mM, 10 mM of phospholipid
[18] = sodium bicarbonate internal salt 500 mM, 5 mM of phospholipid
[19] = sodium bicarbonate internal salt 600 mM, 10 mM of phospholipid
[20] = sodium bicarbonate internal salt 800 mM, 10 mM of phospholipid

- E.E. [1, 4]: 93.3%
- Internal [drug] [1, 4]: 88.41 mM
- Internal drug to internal salt molar ratio [1, 4]: 0.221
- Measured [drug] [1, 4]: 1106.3 µg/mL
SMILES: CN1C(C(=O)Nc2ccccn2)=C(O)c2sc(Cl)cc2S1(=O)=O [Lornoxicam]
- pKa [2]: 1.8

SMILES: O=C(O)COC[C@H]1CC[C@H](COC(=O)N(c2ccccc2)c2ccc(Cl)cc2)CC1 [Ralinepag (APD811), Ralinepag]
- pKa [2]: 3.5

SMILES: C[C@]12CCC(=O)C=C1CC[C@@H]1[C@@H]2[C@@H](O)C[C@@]2(C)[C@H]1CC[C@]2(O)C(=O)COC(=O)CCC(=O)O [Hydrocortisone sodium succinate]
- pKa [2]: 3.66

- E.E. [1, 5]: 91.0%
- Internal [drug] [1, 5]: 87.06 mM
- Internal drug to internal salt molar ratio [1, 5]: 0.435
- Measured [drug] [1, 5]: 766.8 µg/mL
- E.E. [1, 6]: 91.2%
- Internal [drug] [1, 6]: 135.71 mM
- Internal drug to internal salt molar ratio [1, 6]: 0.339
- Measured [drug] [1, 6]: 1192.7 µg/mL
SMILES: O=C(c1ccccc1)c1ccc2n1CCC2C(=O)O (stereo not drawn) [Ketorolac]

SMILES: CCCCC[C@H](O)/C=C/[C@@H]1[C@H]2C/C(=C/CCCC(=O)O)O[C@H]2C[C@H]1O [Epoprostenol]
- pKa [2]: 4.43

- E.E. [1, 7]: 97.6%
- Internal [drug] [1, 7]: 121.78 mM
- Internal drug to internal salt molar ratio [1, 7]: 0.304
- Measured [drug] [1, 7]: 1530.0 µg/mL
- E.E. [1, 8]: 90.4%
- Internal [drug] [1, 8]: 115.01 mM
- Internal drug to internal salt molar ratio [1, 8]: 0.288
- Measured [drug] [1, 8]: 1560 µg/mL
- E.E. [1, 9]: 97.4%
- Internal [drug] [1, 9]: 77.84 mM
- Internal drug to internal salt molar ratio [1, 9]: 0.311
- Measured [drug] [1, 9]: 980 µg/mL
- E.E. [1, 10]: 93.7%
- Internal [drug] [1, 10]: 114.62 mM
- Internal drug to internal salt molar ratio [1, 10]: 0.287
- Measured [drug] [1, 10]: 1500 µg/mL
- E.E. [1, 11]: 94.5%
- Internal [drug] [1, 11]: 119.45 mM
- Internal drug to internal salt molar ratio [1, 11]: 0.299
- Measured [drug] [1, 11]: 1550 µg/mL
SMILES: CCCCC[C@H](O)CC[C@@H]1[C@H]2Cc3cccc(OCC(=O)O)c3C[C@H]2C[C@H]1O [Prostacycline (treprostinil), treprostinil]
- maximum reduction of mean PAP (pulmonary hypertension): 20%

SMILES: O=C(O)COC(=O)Cc1ccccc1Nc1c(Cl)cccc1Cl [Aceclofenac]
- pKa [2]: 4.7

SMILES: O=C(O)CCc1nc(-c2ccccc2)c(-c2ccccc2)o1 [Oxaprozin]
- pKa [2]: 4.95

SMILES: C[C@H]1C[C@@H]2[C@H]([C@@H](O)C[C@@]3(C)[C@H]2CC[C@]3(O)C(=O)COC(=O)CCC(=O)O)[C@@]2(C)C=CC(=O)C=C12 [Methylprednisolone sodium succinate]
- pKa [2]: 4.6

- E.E. [1, 4]: 85.9%
- Internal [drug] [1, 4]: 65.27 mM
- Internal drug to internal salt molar ratio [1, 4]: 0.163
- Measured [drug] [1, 4]: 1132.2 µg/mL
SMILES: C[C@H]1C[C@@H]2[C@H]([C@@H](O)C[C@@]3(C)[C@H]2CC[C@]3(O)C(=O)COC(=O)CCC(=O)O)[C@@]2(C)C=CC(=O)C=C12 [Methylprednisolone Hemisuccinate (MPSS), Methylprednisolone Hemisuccinate]
- pKa [2]: 4.29

- E.E. [1, 7]: 97.4%
- Internal [drug] [1, 7]: 170.34 mM
- Internal drug to internal salt molar ratio [1, 7]: 0.426
- Measured [drug] [1, 7]: 395.9 µg/mL
SMILES: CC#CCC(C)[C@H](O)/C=C/[C@@H]1[C@H]2C/C(=C/CCCC(=O)O)C[C@H]2C[C@H]1O (stereo partly drawn) [Iloprost]
- pKa [2]: 4.66

SMILES: O=C(c1ccccc1)c1ccc2n1CCC2C(=O)O (stereo not drawn) [Ketorolac sodium]
- pKa [2]: 3.8

SMILES: CCCCC[C@H](O)/C=C/[C@H]1[C@H](O)CC(=O)[C@@H]1C/C=C\CCCC(=O)O [Prostaglandin E2 (PGE2), Prostaglandin E2]
- pKa [2]: 4.3

SMILES: CC1(C)[C@@H](OC(=O)CCC(=O)O)CC[C@]2(C)[C@H]3C(=O)C=C4[C@@H]5C[C@@](C)(C(=O)O)CC[C@]5(C)CC[C@@]4(C)[C@]3(C)CC[C@@H]12 [Carbenoxolone sodium]
- pKa [2]: 4.7

- pH at incubation temperature ([3]; bicarbonate 600 mM, 25° C.): 5.42
- pH at incubation temperature ([3]; bicarbonate 600 mM, 37° C.): 5.43
- pH at incubation temperature ([3]; bicarbonate 800 mM, 25° C.): 5.38
- pH at incubation temperature ([3]; bicarbonate 800 mM, 37° C.): 5.53
- pH at incubation temperature ([3]; bicarbonate 1000 mM, 25° C.): 5.37
- liposome leakage ([3]; bicarbonate 1000 mM, 37° C.): leakage
- pH at incubation temperature ([3]; bicarbonate 1000 mM, 37° C.): 6.68
- pH at incubation temperature ([3]; bicarbonate 1300 mM, 25° C.): 5.44
- liposome leakage ([3]; bicarbonate 1300 mM, 37° C.): leakage
- pH at incubation temperature ([3]; bicarbonate 1300 mM, 37° C.): 6.74
- E.E. [1, 6]: 92.8%
- Internal [drug] [1, 6]: 161.81 mM
- Internal drug to internal salt molar ratio [1, 6]: 0.405
- Measured [drug] [1, 6]: 1940.8 µg/mL
- E.E. [1, 12]: 93.8%
- Internal [PGE1] [1, 12]: 19.08 mM
- Internal drug to internal salt molar ratio [1, 12]: 0.382
- [PGE1] [1, 12]: 226.4 µg/mL
- E.E. [1, 13]: 95.7%
- Internal [PGE1] [1, 13]: 60.25 mM
- Internal drug to internal salt molar ratio [1, 13]: 0.402
- [PGE1] [1, 13]: 700.7 µg/mL
- E.E. [1, 14]: 95.9%
- Internal [PGE1] [1, 14]: 80.47 mM
- Internal drug to internal salt molar ratio [1, 14]: 0.402
- [PGE1] [1, 14]: 934.0 µg/mL
- E.E. [1, 15]: 92.3%
- Internal [PGE1] [1, 15]: 119.94 mM
- Internal drug to internal salt molar ratio [1, 15]: 0.480
- [PGE1] [1, 15]: 1446.4 µg/mL
- E.E. [1, 16]: 92.7%
- Internal [PGE1] [1, 16]: 146.32 mM
- Internal drug to internal salt molar ratio [1, 16]: 0.488
- [PGE1] [1, 16]: 1756.9 µg/mL
- E.E. [1, 17]: 92.8%
- Internal [PGE1] [1, 17]: 161.81 mM
- Internal drug to internal salt molar ratio [1, 17]: 0.405
- [PGE1] [1, 17]: 1940.8 µg/mL
- E.E. [1, 18]: 96.0%
- Internal [PGE1] [1, 18]: 252.52 mM
- Internal drug to internal salt molar ratio [1, 18]: 0.505
- [PGE1] [1, 18]: 1463.9 µg/mL
- E.E. [1, 19]: 93.1%
- Internal [PGE1] [1, 19]: 215.66 mM
- Internal drug to internal salt molar ratio [1, 19]: 0.359
- [PGE1] [1, 19]: 2578.3 µg/mL
- E.E. [1, 20]: 90.2%
- Internal [PGE1] [1, 20]: 130.87 mM
- Internal drug to internal salt molar ratio [1, 20]: 0.164
- [PGE1] [1, 20]: 1614.9 µg/mL
SMILES: CCCCC[C@H](O)/C=C/[C@H]1[C@H](O)CC(=O)[C@@H]1CCCCCCC(=O)O [Prostaglandin E1 (PGE1), Prostaglandin E1]
- pKa [2]: 4.35

- E.E. [1, 4]: 84.5%
- Internal [drug] [1, 4]: 76.72 mM
- Internal drug to internal salt molar ratio [1, 4]: 0.192
- Measured [drug] [1, 4]: 944.7 µg/mL
SMILES: CN1C(C(=O)Nc2ccccn2)=C(O)c2ccccc2S1(=O)=O [Piroxicam]
- pKa [2]: 4.8

- E.E. [1, 7]: 98.7%
- Internal [drug] [1, 7]: 65.41 mM
- Internal drug to internal salt molar ratio [1, 7]: 0.164
- Measured [drug] [1, 7]: 174.6 µg/mL
SMILES: CC(C)N(CCCCOCC(=O)O)c1cnc(-c2ccccc2)c(-c2ccccc2)n1 [MIRE-269 (ACT-333679)]
- pKa [2]: 3.77

SMILES: O=C(Oc1ccccc1C(=O)O)c1ccccc1O [Salsalate (Disalcid), Salsalate]
- pKa [2]: 3.4

SMILES: C[C@@H]1C[C@H]2[C@@H]3CCC4=CC(=O)C=C[C@]4(C)[C@@]3(F)[C@@H](O)C[C@]2(C)[C@@]1(O)C(=O)COP(=O)(O)O [Dexamethasone sodium phosphate]
- pKa [2]: 1.89

SMILES: CC#CCC(C)[C@H](O)/C=C/[C@@H]1[C@H]2c3cccc(CCCC(=O)O)c3O[C@H]2C[C@H]1O (mixture of isomers) [Beraprost]
- pKa [2]: 4.2

From patent US12551437B2, “Liposome compositions comprising weak acid drugs and uses thereof” (Pharmosa Biopharm Inc., priority 2017, dated 2026)
